Assay results taken from US11505575B2, “Cyclic polypeptides for PCSK9 inhibition” (Merck Sharp & Dohme LLC, priority 2018, dated 2022).
*1 amine or outer side, *2 acyl side, *3 side chain or, on linkers, in order; H or OH if unused. Where a SMILES comes first, the peptide text is derived from it. Bridges are numbered along the chain shown (N, C = ends). [ ]: non-standard residue; d: D form. Ala(benzothiazol-2-yl) = N[C@@H](Cc1nc2ccccc2s1)C(=O)O; Phe(4-guanidino) = N=C(N)Nc1ccc(C[C@H](N)C(=O)O)cc1; X4 = O=C([C@H](Cc1cc2cc(F)ccc2[nH]1)N[*:1])[*:2]; Trp(5-F) = N[C@@H](Cc1c[nH]c2ccc(F)cc12)C(=O)O; Trp(7-aza) = N[C@@H](Cc1c[nH]c2ncccc12)C(=O)O; mXylylene = c1cc(C[*:1])cc(C[*:2])c1; Cha = N[C@@H](CC1CCCCC1)C(=O)O; Agp = N=C(N)NC[C@H](N)C(=O)O; Chg = N[C@H](C(=O)O)C1CCCCC1; Tle = CC(C)(C)[C@H](N)C(=O)O; Nva = CCC[C@H](N)C(=O)O; Mpa = O=C(O)CCS

target: human PCSK9 / human LDLR EGFa domain interaction (Homo sapiens, UniProt Q8NBP7); experiment: TR-FRET assay of inhibition of the PCSK9-LDLR protein-protein interaction; assay type: binding; details: 20 nM biotinylated human PCSK9 + 20 nM his-tagged human LDLR EGFa domain, 2 hours room temperature
Protocol: A time-resolved fluorescence resonance energy (TR-FRET) assay was used to measure inhibition of the PCSK9-LDLR protein-protein interaction. Briefly, 20 nM avitag-biotinylated human PCSK9 was incubated with 20 nM his-tagged human LDLR EGFa domain in the presence of 5 nM LANCE Ulight Streptavidin (Perkin Elmer) and 5 nM europium-Anti-6×His (Perkin Elmer) for 2 hours covered at room temperature in buffer containing 50 mM HEPES, 150 mM NaCl, 5 mM CaCl2, 0.01% BSA and 0.01% Surfactant P20. Compounds were tested in dose-response and concentrations giving half-maximal inhibition calculated using a 4-parameter fit equation.

Chain of human PCSK9 / human LDLR EGFa domain interaction (Q8NBP7 153-692): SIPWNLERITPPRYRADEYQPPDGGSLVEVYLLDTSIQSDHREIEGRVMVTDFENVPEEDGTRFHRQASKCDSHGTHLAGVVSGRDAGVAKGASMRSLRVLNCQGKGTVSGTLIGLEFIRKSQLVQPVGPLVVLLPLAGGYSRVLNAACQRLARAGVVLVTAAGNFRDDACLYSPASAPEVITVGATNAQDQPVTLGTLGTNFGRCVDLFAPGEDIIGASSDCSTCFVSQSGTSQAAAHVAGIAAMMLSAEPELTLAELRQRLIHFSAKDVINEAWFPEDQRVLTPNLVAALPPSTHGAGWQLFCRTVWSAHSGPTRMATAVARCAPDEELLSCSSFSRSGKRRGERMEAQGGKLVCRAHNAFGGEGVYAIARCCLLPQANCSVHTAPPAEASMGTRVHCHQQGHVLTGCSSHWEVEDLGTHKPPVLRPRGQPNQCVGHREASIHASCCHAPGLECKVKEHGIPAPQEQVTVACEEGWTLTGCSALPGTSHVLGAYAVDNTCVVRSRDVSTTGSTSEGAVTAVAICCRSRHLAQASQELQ
Chain of human PCSK9 / human LDLR EGFa domain interaction (Q8NBP7 31-152 partner limits assumed): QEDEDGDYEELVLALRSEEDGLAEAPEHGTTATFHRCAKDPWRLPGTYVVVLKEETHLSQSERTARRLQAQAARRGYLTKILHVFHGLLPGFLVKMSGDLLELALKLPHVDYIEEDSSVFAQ

Row | Compound | IC50 [nM]
1 | CCC[C@H](NC(=O)[C@H](CCCCN)NC(C)=O)C(=O)N[C@H]1CSCc2cccc(c2)CSC[C@@H](C(N)=O)NC(=O)[C@H]([C@@H](C)O)NC(=O)[C@H](C2CCCCC2)NC(=O)[C@H](Cc2c[nH]c3ncccc23)NC(=O)[C@H](Cc2cnc[nH]2)NC(=O)[C@H](CCC(=O)O)NC(=O)[C@H](Cc2c[nH]c3ncccc23)NC(=O)[C@H]([C@@H](C)O)NC(=O)[C@@H]2CCCN2C(=O)[C@H](Cc2ccc(O)cc2)NC(=O)[C@H](C(C)(C)C)NC1=O [Compound 002] (Ac-K[Nva]C[Tle]YPT[Trp(7-aza)]EH[Trp(7-aza)][Chg]TC-NH2; linker 3-14 via mXylylene) | 1 to 100
2 | CC1O[C@@H](C)[C@@H]2NC(=O)[C@@]1(C)NC(=O)[C@H](Cc1ccc(O)cc1)NC(=O)[C@H](C)NC(=O)C(C)(C)NC(=O)[C@H](Cc1c[nH]c3ncccc13)NC(=O)[C@H]([C@@H](C)O)NC(=O)[C@@H]1CCCN1C(=O)[C@H](Cc1ccc(O)cc1)NC(=O)[C@H](C(C)(C)C)NC(=O)CCSCc1cccc(c1)CSC[C@@H](C(N)=O)NC2=O (stereo partly drawn) [Compound 017] | 100 to 1000
3 | CCC[C@@H]1NC(=O)[C@H](Cc2ccc(O)cc2)NC(=O)[C@H](CCC(=O)O)NC(=O)[C@H](CC(C)C)NC(=O)[C@H](Cc2c[nH]c3ncccc23)NC(=O)[C@H]([C@@H](C)O)NC(=O)[C@H](Cc2cnc[nH]2)NC(=O)[C@H](Cc2ccc(O)cc2)NC(=O)[C@H](C(C)(C)C)NC(=O)CCSCc2cccc(c2)CSC[C@@H](C(N)=O)NC(=O)[C@H]([C@@H](C)O)NC1=O [Compound 078] ([Mpa][Tle]YHT[Trp(7-aza)]LEY[Nva]TC-NH2; linker 1-12 via mXylylene) | 100 to 1000
4 | CCC[C@@H]1NC(=O)[C@H](Cc2ccc(O)cc2)NC(=O)[C@H](CCC(=O)O)NC(=O)[C@H](CC2CCCCC2)NC(=O)[C@H](Cc2c[nH]c3ncccc23)NC(=O)[C@H]([C@@H](C)O)NC(=O)[C@H](Cc2cnc[nH]2)NC(=O)[C@H](Cc2ccc(O)cc2)NC(=O)[C@H](C(C)(C)C)NC(=O)CCSCc2cccc(c2)CSC[C@@H](C(N)=O)NC(=O)[C@H]([C@@H](C)O)NC1=O [Compound 079] ([Mpa][Tle]YHT[Trp(7-aza)][Cha]EY[Nva]TC-NH2; linker 1-12 via mXylylene) | 1000 to 12100

Further lines, results first:

Row | IC50 [nM] | Compound
5 | 100 to 1000 | CCC[C@@H]1NC(=O)[C@H](Cc2nc3ccccc3s2)NC(=O)[C@H]([C@@H](C)O)NC(=O)[C@H](Cc2cnc[nH]2)NC(=O)[C@H](Cc2ccc(O)cc2)NC(=O)[C@H](C(C)(C)C)NC(=O)CCSCc2cccc(c2)CSC[C@@H](C(N)=O)NC(=O)[C@H]([C@@H](C)O)NC(=O)[C@H](CCC)NC(=O)[C@H](Cc2ccc(O)cc2)NC(=O)[C@H](CCC(=O)O)NC1=O [Compound 084] ([Mpa][Tle]YHT[Ala(benzothiazol-2-yl)][Nva]EY[Nva]TC-NH2; linker 1-12 via mXylylene)
6 | 100 to 1000 | CCC[C@@H]1NC(=O)[C@H](Cc2c[nH]c3ncccc23)NC(=O)[C@H]([C@@H](C)O)NC(=O)[C@H](CNC(=N)N)NC(=O)[C@H](Cc2cc3cc(F)ccc3[nH]2)NC(=O)[C@H](Cc2cc3cc(F)ccc3[nH]2)NC(=O)[C@@H](NC(=O)[C@H](Cc2ccc(NC(=N)N)cc2)NC(C)=O)CSCc2cccc(c2)CSC[C@@H](C(N)=O)NC(=O)[C@H]([C@@H](C)O)NC(=O)[C@H](CCC)NC(=O)[C@H](Cc2ccc(O)cc2)NC(=O)[C@H](CCC(=O)O)NC1=O [Compound 092] (Ac-[Phe(4-guanidino)]C[X4][X4][Agp]T[Trp(7-aza)][Nva]EY[Nva]TC-NH2; linker 2-13 via mXylylene)
7 | 100 to 1000 | CCC[C@@H]1NC(=O)[C@H](Cc2c[nH]c3ncccc23)NC(=O)[C@H]([C@@H](C)O)NC(=O)[C@H](CNC(=N)N)NC(=O)[C@H](Cc2c[nH]c3ccc(F)cc23)NC(=O)[C@H](C(C)(C)C)NC(=O)[C@@H](NC(=O)[C@H](Cc2ccc(NC(=N)N)cc2)NC(C)=O)CSCc2cccc(c2)CSC[C@@H](C(N)=O)NC(=O)[C@H]([C@@H](C)O)NC(=O)[C@H](CCC)NC(=O)[C@H](Cc2ccc(O)cc2)NC(=O)[C@H](CCC(=O)O)NC1=O [Compound 093] (Ac-[Phe(4-guanidino)]C[Tle][Trp(5-F)][Agp]T[Trp(7-aza)][Nva]EY[Nva]TC-NH2; linker 2-13 via mXylylene)

target: T1, PCSK9 (Homo sapiens, UniProt Q8NBP7); experiment: PCSK9 Alexa FRET Standard assay (displacement of AlexaFluor647-tagged cyclic peptide Reagent A); assay type: binding; details: 0.5 nM PCSK9, 20 nM AF cyclic peptide Reagent A
T1 construct: biotin (biotinylated)
Protocol: A solution containing 1 nM biotinylated PCSK9+2.5 nM Lance Streptavidin Europium (Strep-Eu) was made in 50 mM HEPES pH 7.4, 0.15 M NaCl, 5 mM CaCl2, 0.01% BSA, and 0.01% Surfactant P20. A separate solution containing 40 nM of the AlexaFluor tagged cyclic peptide was made in the same buffer system. An Echo was used to transfer 0.750 ul of compound to an assay plate followed by the addition of 15 ul of PCSK9+Stept-Eu and 15 ul of AF peptide. The final assay volume was 30.750 ul containing 0.5 nM PCSK9, 1.25 nM Strep-Eu, and 20 nM AF cyclic peptide. The reaction was incubated at room temperature for at least two hours prior to fluorescence measurements using an Envision Multilabel Reader. IC50 values were determined by fitting data to a sigmoidal dose-response curve using nonlinear regression. Ki was then calculated from the IC50 and the KD of AF cyclic peptide. Counts (B-counts) of the europium-labeled PCSK9 were followed to observe if compounds were […]. A fall off of the B-counts likely indicated a false positive of inhibition. Data from this procedure was reported as “A=‘numerical value’ (nanomolar)”

T1 sequence (Q8NBP7 153-692): as the sequence (Q8NBP7 153-692) above

Row | IC50 [nM] | Compound
8 | 1 to 100 | CCC[C@H](NC(=O)[C@H](CCCCN)NC(C)=O)C(=O)N[C@H]1CSCc2cccc(c2)CSC[C@@H](C(N)=O)NC(=O)[C@H]([C@@H](C)O)NC(=O)[C@H](C2CCCCC2)NC(=O)[C@H](Cc2c[nH]c3ncccc23)NC(=O)[C@H](Cc2cnc[nH]2)NC(=O)[C@H](CCC(=O)O)NC(=O)[C@H](Cc2c[nH]c3ncccc23)NC(=O)[C@H]([C@@H](C)O)NC(=O)[C@@H]2CCCN2C(=O)[C@H](Cc2ccc(O)cc2)NC(=O)[C@H](C(C)(C)C)NC1=O [Compound 002] (Ac-K[Nva]C[Tle]YPT[Trp(7-aza)]EH[Trp(7-aza)][Chg]TC-NH2; linker 3-14 via mXylylene)
9 | 1 to 100 | CC1O[C@@H](C)[C@@H]2NC(=O)[C@@]1(C)NC(=O)[C@H](Cc1ccc(O)cc1)NC(=O)[C@H](C)NC(=O)C(C)(C)NC(=O)[C@H](Cc1c[nH]c3ncccc13)NC(=O)[C@H]([C@@H](C)O)NC(=O)[C@@H]1CCCN1C(=O)[C@H](Cc1ccc(O)cc1)NC(=O)[C@H](C(C)(C)C)NC(=O)CCSCc1cccc(c1)CSC[C@@H](C(N)=O)NC2=O (stereo partly drawn) [Compound 017]
